These results are taken from US20110028507A1, “PYRIDINE DERIVATIVES AND METHODS OF USE THEREOF” (CRYSTALGENOMICS, INC., priority 2007, published 2011).

The target in one test is T1, HIF-PH2 (EGLN1) (Homo sapiens, UniProt Q9GZT9).
T1 construct: made in house; host or cells: E. coli
The experiment in a line: HIF-PH2 (PHD2) assay (fluorescence polarization method). It is filed as biochemical. The conditions noted are these: 200 nM HIF PH2 enzyme, 50 nM peptide substrate, 30° C. one hour; read-out: IC50 (HIF PH2 inhibition activity). As for the experimental part: HIF-PH2 (EGLN1) was expressed from E. coli cells, and purified using two process: an Ni-affinity chromatography column and a size-exclusion chromatography column.
To evaluate activities of an HIF PH2 inhibitor, HIF PH2 enzyme that was first overexpressed by genetic recombination and then purified was used to perform an enzyme reaction. […] At this time, 2 mM ascorbic acid and 5 mM ketoglutarate with 100 μM FeCl2 or without FeCl2, were used together with crude enzyme. A concentration of HIF PH2 inhibitor to be tested was treated and reacted at 30° C. for one hour. After the reaction, the resulting reaction product was boiled at 95° C. for one minute to suppress the enzyme reaction.
To determine whether prolyl hydroxylation occurs in the substrate as the secondary reaction, 500 nM GST-VBC (GST-VHL-Elongin B-Elongin C) protein was added to a reaction buffer (50 mM Tris-Cl (pH8.0), 120 mM NaCl, 0.5% Nonidet P40), and a GST-VBC binding reaction was carried out at room temperature for 30 minutes.
A fluorescence polarization value of a sample that is not treated with the HIF PH2 inhibitor was used as 100% control, and the activities of the HIF PH2 inhibitor were measured as percentage of the remaining HIF PH2 enzyme activity in samples treated with a concentration of the HIF PH2 inhibitor to be tested.

The subject of a further test is EPO. The experiment in a line: Human EPO immunoassay (ELISA of Hep3B culture media). It is filed as cell-based. The conditions noted are these: Hep3B cells, compound at 100 μM, 24-hour incubation; for EPO (mIU/ml): culture media ELISA; for fold induction at 100 µM: Homo sapiens, read-out: Fold Induction over control (EPO Induction). Here is the method:
Human cells derived from hepatocarcinoma (Hep3B) tissue (see, e.g., American Type Culture Collection, Manassas Va.) were grown at 37° C., 20% O2, 5% CO2 in DMEM (GIBCO)+10% FBS, 4.5 g/L D-Glucose; L-Glutamate and 110 mg/L sodium pyruvate. Ninety-six well plates were seeded with 4×10^4 HEP3B cells/well. The media was removed and replaced with DMEM+10% FBS. Compounds were added to wells at concentrations between 1 μM-100 μM for a 24-hour incubation. Cell culture media was harvested and EPO concentration was determined using a Human Erythropoietin Quantikine IVD ELISA Kit (R&D Systems®, Minneapolis, Minn.) following the manufacturer's instructions for the benchtop assay.
For orientation: ELISA stands for enzyme-linked immunosorbent assay.

T1 sequence (Q9GZT9 whole entry, species assumed): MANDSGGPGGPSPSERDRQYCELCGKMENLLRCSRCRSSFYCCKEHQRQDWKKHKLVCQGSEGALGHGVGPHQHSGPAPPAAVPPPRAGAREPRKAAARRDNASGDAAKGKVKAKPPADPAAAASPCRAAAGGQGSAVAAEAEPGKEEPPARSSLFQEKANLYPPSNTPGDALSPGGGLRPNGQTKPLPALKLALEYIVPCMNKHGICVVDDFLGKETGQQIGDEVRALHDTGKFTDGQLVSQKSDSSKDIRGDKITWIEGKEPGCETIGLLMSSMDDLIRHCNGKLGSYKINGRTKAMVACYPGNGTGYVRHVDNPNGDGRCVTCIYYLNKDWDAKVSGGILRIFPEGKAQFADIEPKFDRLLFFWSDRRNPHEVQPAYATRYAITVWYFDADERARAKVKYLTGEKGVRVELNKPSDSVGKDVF

As to `O=C(NCc1cccnc1)c1nc(Br)c2c(sc3ccccc32)c1O` [1-Bromo-4-hydroxy-benzo[4,5]thieno[3,2-c]pyridine-3-carboxylic acid (pyridin-3-ylmethyl)-amide], at HIF-PH2 (EGLN1), the IC50 (as a rule, the concentration that gives 50% inhibition) lay within 26 to 100 µM. Same read-out and setting: next, `C[C@H](NC(=O)c1ncc2ccoc2c1O)C(=O)O` [(S)-2-[(7-Hydroxy-furo[3,2-c]pyridine-6-carbonyl)-amino]-propionic acid]: above 201 µM; `COC(=O)CNC(=O)c1nc(Cl)c2c(ccn2S(=O)(=O)c2ccccc2)c1O` [[(1-Benzenesulfonyl-7-chloro-4-hydroxy-1H-pyrrolo[2,3-c]pyridine-5-carbonyl)-amino]-acetic acid methyl ester]: below 25 µM. In the case of `O=C(O)CNC(=O)c1nc(Cl)c2c(ccn2S(=O)(=O)c2ccccc2)c1O` [[(1-Benzenesulfonyl-7-chloro-4-hydroxy-1H-pyrrolo[2,3-c]pyridine-5-carbonyl)-amino]-acetic acid], the concentration for half-maximal inhibition (IC50) on HIF-PH2 (EGLN1) was below 25 µM. Also, in the test on EPO, the “EPO (mIU/ml)” value was “I (I = 0-20 mIU/ml)” and the fold induction at 100 µM is below 20. For the compound `O=C(O)CNC(=O)c1nc(Br)c2c(sc3ccccc32)c1F` [[(1-Bromo-4-fluoro-benzo[4,5]thieno[3,2-c]pyridine-3-carbonyl)-amino]-acetic acid], the IC50 at HIF-PH2 (EGLN1) was below 25 µM. Consider `O=C(O)CNC(=O)c1nc(Cl)c2c(sc3cc(O)ccc32)c1O` [[(1-Chloro-4,7-dihydroxy-benzo[4,5]thieno[3,2-c]pyridine-3-carbonyl)-amino]-acetic acid], for which, on HIF-PH2 (EGLN1), the 50% inhibitory concentration (IC50) is below 25 µM. Further, in the test on EPO, the “EPO (mIU/ml)” value is reported as “I (I = 0-20 mIU/ml)” and the fold induction at 100 µM was below 20.

In the case of `O=C(O)CNC(=O)c1nc(Cl)c2c(sc3ccc(O)cc32)c1O` [[(1-Chloro-4,8-dihydroxy-benzo[4,5]thieno[3,2-c]pyridine-3-carbonyl)-amino]-acetic acid], the 50% inhibitory concentration (IC50) on HIF-PH2 (EGLN1) is below 25 µM. In addition, in the test with EPO, the “EPO (mIU/ml)” value was “I (I = 0-20 mIU/ml)” and the fold induction at 100 µM is below 20.

`CC(C)Oc1ccc2c(c1)sc1c(O)c(C(=O)NCC(=O)O)nc(Cl)c12` [[(1-Chloro-4-hydroxy-7-isopropoxy-benzo[4,5]thieno[3,2-c]pyridine-3-carbonyl)-amino]-acetic acid]: at HIF-PH2 (EGLN1), the half-inhibitory concentration (IC50) was below 25 µM. In addition, in the test on EPO, the “EPO (mIU/ml)” value is recorded as “L (L = >61 mIU/ml)” and the fold induction at 100 µM was in the range of 21 to 50.

On to `COc1ccc2c(c1)sc1c(O)c(C(=O)NCC(=O)O)nc(Cl)c12` [[(1-Chloro-4-hydroxy-7-methoxy-benzo[4,5]thieno[3,2-c]pyridine-3-carbonyl)-amino]-acetic acid], for which the 50% inhibitory concentration (IC50) on HIF-PH2 (EGLN1) is below 25 µM. Moreover, in the test on EPO, the “EPO (mIU/ml)” value is on record as “I (I = 0-20 mIU/ml)” and the fold induction at 100 µM was in the range of 21 to 50. Consider `O=C(O)CNC(=O)c1nc(Cl)c2c(sc3ccc(S(=O)(=O)Cc4ccccc4)cc32)c1O` [[(1-Chloro-4-hydroxy-8-phenylmethanesulfonyl-benzo[4,5]thieno[3,2-c]pyridine-3-carbonyl)-amino]-acetic acid], for which, on HIF-PH2 (EGLN1), the IC50 fell in the range of 26 to 100 µM. Take `O=C(O)CNC(=O)c1nc(Cl)c2c(sc3ccc(C(F)(F)F)cc32)c1O` [[(1-Chloro-4-hydroxy-8-trifluoromethyl-benzo[4,5]thieno[3,2-c]pyridine-3-carbonyl)-amino]-acetic acid]: on HIF-PH2 (EGLN1), the half-inhibitory concentration (IC50) was below 25 µM. Moreover, in the test on EPO, the “EPO (mIU/ml)” value is reported as “J (J = 21-40 mIU/ml)” and the fold induction at 100 µM lay within 21 to 50. Turning to `CCN(CC)c1ccc2sc3c(O)c(C(=O)NCC(=O)O)nc(Cl)c3c2c1` [[(1-Chloro-8-diethylamino-4-hydroxy-benzo[4,5]thieno[3,2-c]pyridine-3-carbonyl)-amino]-acetic acid], the half-maximal inhibitory concentration (IC50) at HIF-PH2 (EGLN1) was below 25 µM. In the test with EPO, the “EPO (mIU/ml)” value is “J (J = 21-40 mIU/ml)” and the fold induction at 100 µM was in the range of 21 to 50. As for `CCS(=O)(=O)c1ccc2sc3c(O)c(C(=O)NCC(=O)O)nc(Cl)c3c2c1` [[(1-Chloro-8-ethanesulfonyl-4-hydroxy-benzo[4,5]thieno[3,2-c]pyridine-3-carbonyl)-amino]-acetic acid], on HIF-PH2 (EGLN1), the half-maximal inhibitory concentration (IC50) lay in the range of 26 to 100 µM. The same measure, in the same setting: next, `CC(C)Oc1c(C(=O)NCC(=O)O)nc(Cl)c2c1sc1ccc(O)cc12` [[(1-Chloro-8-hydroxy-4-isopropoxy-benzo[4,5]thieno[3,2-c]pyridine-3-carbonyl)-amino]-acetic acid]: 101 to 200 µM; `COc1c(C(=O)NCC(=O)O)nc(Cl)c2c1sc1ccc(O)cc12` [[(1-Chloro-8-hydroxy-4-methoxy-benzo[4,5]thieno[3,2-c]pyridine-3-carbonyl)-amino]-acetic acid]: 101 to 200 µM. Same read-out and setting: next, `Nc1c(C(=O)NCC(=O)O)nc(Br)c2c1sc1ccccc12` [[(4-Amino-1-bromo-benzo[4,5]thieno[3,2-c]pyridine-3-carbonyl)-amino]-acetic acid]: above 201 µM. As to `O=C(O)CN(O)C(=O)c1ncc2c(sc3ccccc32)c1Cl` [[(4-Chloro-benzo[4,5]thieno[3,2-c]pyridine-3-carbonyl)-hydroxy-amino]-acetic acid], at HIF-PH2 (EGLN1), the concentration for half-maximal inhibition (IC50) is above 201 µM.

For the compound `Cc1nc(C(=O)NCC(=O)O)c(O)c2sc3ccccc3c12` [[(4-Hydroxy-1-methyl-benzo[4,5]thieno[3,2-c]pyridine-3-carbonyl)-amino]-acetic acid], in the test on EPO, the “EPO (mIU/ml)” value is “J (J = 21-40 mIU/ml)” and the fold induction at 100 µM was above 71. `O=C(O)CNC(=O)c1ncc2c(oc3ccccc32)c1O` [[(4-Hydroxy-benzo[4,5]furo[3,2-c]pyridine-3-carbonyl)-amino]-acetic acid]: in the test with EPO, the “EPO (mIU/ml)” value is on record as “I (I = 0-20 mIU/ml)” and the fold induction at 100 µM was below 20.

As for `O=C(O)CNC(=O)c1ncc2c(sc3ccccc32)c1O` [[(4-Hydroxy-benzo[4,5]thieno[3,2-c]pyridine-3-carbonyl)-amino]-acetic acid], in the test on EPO, the “EPO (mIU/ml)” value is “I (I = 0-20 mIU/ml)” and the fold induction at 100 µM was below 20. Take `O=C(O)CNC(=O)c1nc(Cl)c2[nH]ccc2c1O` [[(7-Chloro-4-hydroxy-1H-pyrrolo[2,3-c]pyridine-5-carbonyl)-amino]-acetic acid]: at HIF-PH2 (EGLN1), the half-inhibitory concentration (IC50) is above 201 µM. For `O=C(O)CNC(=O)c1ncc2c(-c3ccccc3)coc2c1O` [[(7-Hydroxy-3-phenyl-furo[3,2-c]pyridine-6-carbonyl)-amino]-acetic acid], the IC50 on HIF-PH2 (EGLN1) was 101 to 200 µM. As to `O=C(O)CNC(=O)c1ncc2ccoc2c1O` [[(7-Hydroxy-furo[3,2-c]pyridine-6-carbonyl)-amino]-acetic acid], the IC50 at HIF-PH2 (EGLN1) is above 201 µM. The same measure, in the same setting: next, `O=C(O)CNC(=O)c1nc(Cl)c2c(sc3ccc([S+]([O-])c4ccccc4)cc32)c1O` (centres unmarked) [[(8-Benzenesulfinyl-1-chloro-4-hydroxy-benzo[4,5]thieno[3,2-c]pyridine-3-carbonyl)-amino]-acetic acid]: below 25 µM; `O=C(O)CNC(=O)c1nc(Cl)c2c(sc3ccc(S(=O)(=O)c4ccccc4)cc32)c1O` [[(8-Benzenesulfonyl-1-chloro-4-hydroxy-benzo[4,5]thieno[3,2-c]pyridine-3-carbonyl)-amino]-acetic acid]: below 25 µM; `O=C(O)CNC(=O)c1nc(Cl)c2c(sc3ccc(NCc4ccccc4)cc32)c1O` [[(8-Benzylamino-1-chloro-4-hydroxy-benzo[4,5]thieno[3,2-c]pyridine-3-carbonyl)-amino]-acetic acid]: below 25 µM. Same read-out and setting: with `O=C(O)CN(O)C(=O)c1ncc2c(sc3ccccc32)c1O` [[Hydroxy-(4-hydroxy-benzo[4,5]thieno[3,2-c]pyridine-3-carbonyl)-amino]-acetic acid] the figure was 101 to 200 µM.
